Experimental data: patent publication US20230183309A1 (Dana-Farber Cancer Institute, Inc., priority 2019, published 2023)
Entries after “also recorded” stand apart in the source; their conditions may differ. Numbered stars: 1 amine (or outer) side, 2 acyl side, 3 side chain; on linkers, the order of the positions; unused ones are H or OH. Bridge positions count the residues as written; N and C are the ends. Square brackets hold non-standard residues; d marks the D form. code # = α,α-bis(4′-pentenyl)glycine, C=CCCCC(CCCC=C)(N[*:1])C(=O)[*:2]; R8 = C=CCCCCCC[C@@](C)(N)C(=O)O; S8 = C=CCCCCCC[C@](C)(N)C(=O)O; Aib = CC(C)(N)C(=O)O

Columns and labels:
B6 mice = assay: Glucose tolerance test in fasted mice; type: in vivo, mouse; settings: 10 nmol/kg IP, glucose 2 g/kg IP 30 minutes later
Procedure: To evaluate whether the relative proteolytic stability of SAH-GLP-1(16,23,30) translated into a functional benefit in vivo, glucose tolerance tests in mice were performed. Mice (n=8 per arm) were fasted overnight and administered the corresponding panel of peptides at 10 nmol/kg intraperitoneally followed by a glucose bolus (2 g/kg) 30 minutes later, and then serial serum glucose monitoring was performed over time.
In vivo efficacy testing of SAH-GLP-1 peptides. Male B6 and db/db mice (JAX 000697) at 10-12 weeks of age were housed (5 mice/cage) at a constant room temperature of 24° C. on a normal day-light cycle and provided a standard diet ad libitum. After one week of acclimatization, B6 mice (n=8 per treatment arm) were fasted for 16 hours overnight and the following morning baseline blood glucose levels were measured (Onetouch), followed by intraperitoneal (IP) injection of vehicle (saline) or the indicated peptide (10 nmol/kg). Thirty minutes later, the mice were treated with a bolus IP injection of glucose (2 g/kg, 20% aqueous solution), followed by serial blood glucose monitoring at 0, 15, 30, 60, and 120 minutes. To evaluate the comparative anti-hyperglycemic effects of peptides in db/db mice (n=8 per treatment arm), vehicle (saline) or the indicated peptide (10 nmol/kg) was injected IP and blood glucose levels monitored at 0, 15, 30, 60, and 720 minutes.

proteinase K = target: T1, proteinase K (Parengyodontium album, UniProt P06873); type: in vitro ADME
T1 construct: purchased New England Biolabs
T1 sequence (P06873 106-384): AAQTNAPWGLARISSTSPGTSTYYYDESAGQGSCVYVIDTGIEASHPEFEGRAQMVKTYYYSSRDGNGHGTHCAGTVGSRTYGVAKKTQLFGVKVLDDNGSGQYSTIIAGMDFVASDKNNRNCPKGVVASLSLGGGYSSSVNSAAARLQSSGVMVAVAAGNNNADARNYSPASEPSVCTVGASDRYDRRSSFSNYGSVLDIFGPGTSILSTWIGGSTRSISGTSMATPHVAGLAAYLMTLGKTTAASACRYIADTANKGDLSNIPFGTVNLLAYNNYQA

[1] = mouse
Procedure: Plasma Stability Testing. Peptide stability was tested in freshly drawn mouse plasma collected in lithium heparin tubes. Peptide plasma incubations were set up with 500 µL of plasma spiked with 10 µM of the individual peptides. Samples were gently shaken in an orbital shaker at 37° C., and 20 µL aliquots were removed at 0, 5, 15, 30, 60, 120, and 200 minutes and added to 150 µL of a mixture containing 50% water/50% acetonitrile to stop further degradation of the peptides. The samples were allowed to sit on ice for the duration of the assay and then transferred to a MultiScreen Solvinert 0.45 µm low-binding hydrophilic PTFE plate (Millipore). The filtrate was directly analyzed by LC/MS/MS using a Thermo BetaSil column, 2.1 × 50 mm, 5 µm. […] The percentage of remaining peptide was determined by the decrease in chromatographic peak area and log transformed to calculate the half-life.

human GLP-1 receptor = human GLP-1 receptor (Homo sapiens, UniProt P43220); settings: GFP-GLP-1R U2OS cells; FIG. 6A, 6B (lower dose-range 1 µM, 100 nM, 10 nM)
Chain of human GLP-1 receptor (P43220 24-463): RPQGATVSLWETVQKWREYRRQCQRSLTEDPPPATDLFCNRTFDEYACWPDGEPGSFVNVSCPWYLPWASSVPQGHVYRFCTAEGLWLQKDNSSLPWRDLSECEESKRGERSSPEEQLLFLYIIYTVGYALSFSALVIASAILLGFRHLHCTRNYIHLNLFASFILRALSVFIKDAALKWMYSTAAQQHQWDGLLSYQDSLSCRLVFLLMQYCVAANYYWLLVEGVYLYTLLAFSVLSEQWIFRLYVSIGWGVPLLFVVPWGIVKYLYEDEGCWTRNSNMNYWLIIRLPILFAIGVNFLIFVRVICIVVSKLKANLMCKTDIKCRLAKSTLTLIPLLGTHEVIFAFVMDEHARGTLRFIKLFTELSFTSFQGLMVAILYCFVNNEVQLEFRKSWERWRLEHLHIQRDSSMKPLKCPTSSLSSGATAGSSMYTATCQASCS

[2] = target: GLP-1R expressed on CHO-K1 cells (cAMP Hunter eXpress GLP1R CHO-K1 GPCR Assay, Eurofins, 95-0062E2CP2S) (UniProt P43220 24-463); assay: cell-based or functional assay

CC[C@H](C)[C@H](NC(=O)[C@H](Cc1ccccc1)NC(=O)[C@H](CCC(=O)O)NC(=O)[C@H](CCCCN)NC(=O)[C@H](C)NC(=O)[C@H](C)NC(=O)[C@H](CCC(N)=O)NC(=O)CNC(=O)[C@H](CCC(=O)O)NC(=O)[C@H](CC(C)C)NC(=O)[C@H](Cc1ccc(O)cc1)NC(=O)[C@H](CO)NC(=O)[C@H](CO)NC(=O)[C@@H](NC(=O)[C@H](CC(=O)O)NC(=O)[C@H](CO)NC(=O)[C@@H](NC(=O)[C@H](Cc1ccccc1)NC(=O)[C@@H](NC(=O)CNC(=O)[C@H](CCC(=O)O)NC(=O)[C@H](C)NC(=O)[C@@H](N)Cc1c[nH]cn1)[C@@H](C)O)[C@@H](C)O)C(C)C)C(=O)N[C@@H](C)C(=O)N[C@@H](Cc1c[nH]c2ccccc12)C(=O)N[C@@H](CC(C)C)C(=O)N[C@H](C(=O)N[C@@H](CCCCN)C(=O)NCC(=O)N[C@@H](CCCNC(=N)N)C(N)=O)C(C)C [GLP-1]
control of induced hyperglycemia in glucose tolerance test (B6 mice): least effective

CC[C@H](C)[C@@H]1NC(=O)[C@H](Cc2ccccc2)NC(=O)[C@H](CCC(=O)O)NC(=O)[C@H](CCCCN)NC(=O)[C@H](C)NC(=O)[C@H](C)NC(=O)C2(CCCC=CCCCCCC[C@@](C)(NC(=O)[C@H](CC(=O)O)NC(=O)[C@H](CO)NC(=O)[C@@H](NC(=O)[C@H](Cc3ccccc3)NC(=O)[C@@H](NC(=O)CNC(=O)[C@H](CCC(=O)O)NC(=O)C(C)(C)NC(=O)[C@@H](N)Cc3c[nH]cn3)[C@@H](C)O)[C@@H](C)O)C(=O)N[C@@H](CO)C(=O)N[C@@H](CO)C(=O)N[C@@H](Cc3ccc(O)cc3)C(=O)N[C@@H](CC(C)C)C(=O)N[C@@H](CCC(=O)O)C(=O)NCC(=O)N2)CCCC=CCCCCCC[C@@](C)(C(=O)N[C@@H](Cc2c[nH]c3ccccc23)C(=O)N[C@@H](CC(C)C)C(=O)N[C@H](C(=O)N[C@@H](CCCCN)C(=O)NCC(=O)N[C@@H](CCCNC(=N)N)C(N)=O)C(C)C)NC1=O (stereo partly drawn) [SAH-GLP-1(16,23,30), HJEGTFTSD8SSYLEG#AAKEFIZWLVKGR]
improvement of proteinase K half-life compared to the singly stapled peptides (proteinase K): 2-7 fold | improvement of proteinase K half-life compared to wild-type / control peptide (proteinase K): over 20 fold | half-life (proteinase K; proteinase K, 50 mM Tris-HCl, pH 7.4, peptides have the A8Aib substitution, read-out: t½ (half-life), proteinase K digestion, intact peptide by LCMS): 3.67 h | plasma half-life relative to semaglutide [1]: nearly double | half-life ([1]; plasma): 5.33 h

CC[C@H](C)[C@H](NC(=O)[C@H](Cc1ccccc1)NC(=O)[C@H](CCC(=O)O)NC(=O)[C@H](CCCCNC(=O)COCCOCCNC(=O)COCCOCCNC(=O)CC[C@H](NC(=O)CCCCCCCCCCCCCCCCC(=O)O)C(=O)O)NC(=O)[C@H](C)NC(=O)[C@H](C)NC(=O)[C@H](CCC(N)=O)NC(=O)CNC(=O)[C@H](CCC(=O)O)NC(=O)[C@H](CC(C)C)NC(=O)[C@H](Cc1ccc(O)cc1)NC(=O)[C@H](CO)NC(=O)[C@H](CO)NC(=O)[C@@H](NC(=O)[C@H](CC(=O)O)NC(=O)[C@H](CO)NC(=O)[C@@H](NC(=O)[C@H](Cc1ccccc1)NC(=O)[C@@H](NC(=O)CNC(=O)[C@H](CCC(=O)O)NC(=O)C(C)(C)NC(=O)[C@@H](N)Cc1cnc[nH]1)[C@@H](C)O)[C@@H](C)O)C(C)C)C(=O)N[C@@H](C)C(=O)N[C@@H](Cc1c[nH]c2ccccc12)C(=O)N[C@@H](CC(C)C)C(=O)N[C@H](C(=O)N[C@@H](CCCNC(=N)N)C(=O)NCC(=O)N[C@@H](CCCNC(=N)N)C(=O)NCC(=O)O)C(C)C [semaglutide, reference compound]
proteolysis by proteinase K (in words) (proteinase K; identical conditions as FIG. 7A, FIG. 7B): rapidly proteolyzed; also recorded: rapid proteolysis

HGEGTFTSD8SSYLEG#AAKEFIZWLVKGR (H-HGEGTFTSD[R8]SSYLEG[code #]AAKEFI[S8]WLVKGR-NH2; staple 10-17, 17-24) [SAH-GLP-1(A8G)(16,23,30)]
GLP-1R internalization activity compared with the corresponding unstapled / wild-type GLP-1 peptide (human GLP-1 receptor): more active

H-H[Aib]EGTFTSD[R8]SSYLEG[code #]AAKEFI[S8]WLVKGR-NH2 (staple 10-17, 17-24) [SAH-GLP-1(16,23,30) A8J]
cAMP induction (cAMP Hunter eXpress luminescence assay), EC50 [2]: 0.16 nM
